{"source": "ChEMBL document CHEMBL1201862", "about": "“PubChem BioAssay data set” (2004)", "key": {"[1]": {"target": "T1, E3 ubiquitin-protein ligase XIAP (Homo sapiens, UniProt P98170)", "test": "SAR analysis of Antagonists of XIAP-Bir3 domain of IAP-family anti-apoptotic proteins. [Related pubchem assays (depositor defined):AID1018, AID1449, AID1513, AID1514, AID1638]"}, "[2]": {"target": "T1, E3 ubiquitin-protein ligase XIAP", "test": "SAR analysis of Antagonists of IAP-family anti-apoptotic proteins. [Related pubchem assays (depositor defined):AID1018, AID1449, AID1513, AID1514, AID1638]"}, "[3]": {"target": "T2, Tyrosine-protein phosphatase non-receptor type 7 (Homo sapiens, UniProt P35236)", "T2 sequence (P35236 whole entry)": "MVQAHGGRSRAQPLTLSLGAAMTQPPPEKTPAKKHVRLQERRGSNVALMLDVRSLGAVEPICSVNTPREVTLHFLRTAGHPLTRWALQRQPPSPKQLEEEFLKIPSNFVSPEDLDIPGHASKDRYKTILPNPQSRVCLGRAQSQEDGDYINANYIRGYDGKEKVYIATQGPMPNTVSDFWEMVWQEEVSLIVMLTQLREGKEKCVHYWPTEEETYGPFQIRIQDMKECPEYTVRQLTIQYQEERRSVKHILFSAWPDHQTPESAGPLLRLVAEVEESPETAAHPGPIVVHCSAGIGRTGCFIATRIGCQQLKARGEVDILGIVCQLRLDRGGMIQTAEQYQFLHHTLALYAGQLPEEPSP", "test": "HePTP (PTPN7) phosphatase inhibitor potency, SAR follow-up, biochemical, set 2 (AID 449736)", "assay_type": "functional"}, "[4]": {"target": "Signal transducer and activator of transcription 3 (Homo sapiens, UniProt P40763)", "test": "STAT3 inhibitors, late-stage profile, late-stage follow-up, cell-based, STAT1 panel, qPCR, cytotoxicity, panel member STAT3 Inhibition (AID 2078)"}, "[5]": {"target": "Signal transducer and activator of transcription 1-alpha/beta (Homo sapiens, UniProt P42224)", "test": "STAT3 inhibitors, late-stage profile, late-stage follow-up, cell-based, STAT1 panel, qPCR, cytotoxicity, panel member STAT1 Inhibition (AID 2078)"}, "[6]": {"target": "Voltage-dependent T-type calcium channel subunit alpha-1H (Homo sapiens, UniProt O95180)", "test": "Cav3.2 T-type channel inhibitors, synthesized analogs, SAR follow-up, cell-based, synthetic library set 2, HEK293 HH8, Fluo-4 (AID 493023)", "assay_type": "functional"}, "[7]": {"target": "T3, Sphingosine 1-phosphate receptor 4 (Homo sapiens, UniProt O95977)", "T3 sequence (O95977 whole entry)": "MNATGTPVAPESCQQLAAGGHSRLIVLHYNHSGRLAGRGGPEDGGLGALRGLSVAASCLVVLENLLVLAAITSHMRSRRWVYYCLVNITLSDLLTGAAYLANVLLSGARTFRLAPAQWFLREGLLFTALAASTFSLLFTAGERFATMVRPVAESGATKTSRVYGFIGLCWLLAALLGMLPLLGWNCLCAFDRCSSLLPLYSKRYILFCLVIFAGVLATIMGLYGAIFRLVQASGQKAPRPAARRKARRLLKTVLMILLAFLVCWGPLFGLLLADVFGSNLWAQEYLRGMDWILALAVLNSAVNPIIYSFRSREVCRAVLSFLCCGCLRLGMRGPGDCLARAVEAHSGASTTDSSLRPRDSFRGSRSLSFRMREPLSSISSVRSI", "test": "Late-stage fluorescence dose response cell-based assay to identify agonists of the Sphingosine 1-Phosphate Receptor 4 (S1P4): purchased compounds EC50. [Related pubchem assays (depositor defined):AID1509, AID1523, AID1563, AID1686, AID1701, AID1801]", "assay_type": "functional"}, "Troponin, cardiac muscle": {"target": "Troponin, cardiac muscle (Homo sapiens, UniProt P19429+P45379+P63316)", "test": "Fluorescence-based biochemical high throughput dose response assay for activators of the calcium sensitivity of cardiac Regulated Thin Filaments (RTF). [Related pubchem assays (depositor defined):AID493008, AID493018, AID504382, AID504383]", "assay_type": "protein-complex assay"}, "[8]": {"target": "Protein-arginine deiminase type-4 (Homo sapiens, UniProt Q9UM07)", "test": "human PAD4 inhibitor potency, dose response, biochemical, fluorescence readout (AID 492970)"}, "[9]": {"target": "T4, Replicative DNA helicase DnaB (Mycobacterium tuberculosis, UniProt P9WMR3)", "T4 sequence (P9WMR3 whole entry)": "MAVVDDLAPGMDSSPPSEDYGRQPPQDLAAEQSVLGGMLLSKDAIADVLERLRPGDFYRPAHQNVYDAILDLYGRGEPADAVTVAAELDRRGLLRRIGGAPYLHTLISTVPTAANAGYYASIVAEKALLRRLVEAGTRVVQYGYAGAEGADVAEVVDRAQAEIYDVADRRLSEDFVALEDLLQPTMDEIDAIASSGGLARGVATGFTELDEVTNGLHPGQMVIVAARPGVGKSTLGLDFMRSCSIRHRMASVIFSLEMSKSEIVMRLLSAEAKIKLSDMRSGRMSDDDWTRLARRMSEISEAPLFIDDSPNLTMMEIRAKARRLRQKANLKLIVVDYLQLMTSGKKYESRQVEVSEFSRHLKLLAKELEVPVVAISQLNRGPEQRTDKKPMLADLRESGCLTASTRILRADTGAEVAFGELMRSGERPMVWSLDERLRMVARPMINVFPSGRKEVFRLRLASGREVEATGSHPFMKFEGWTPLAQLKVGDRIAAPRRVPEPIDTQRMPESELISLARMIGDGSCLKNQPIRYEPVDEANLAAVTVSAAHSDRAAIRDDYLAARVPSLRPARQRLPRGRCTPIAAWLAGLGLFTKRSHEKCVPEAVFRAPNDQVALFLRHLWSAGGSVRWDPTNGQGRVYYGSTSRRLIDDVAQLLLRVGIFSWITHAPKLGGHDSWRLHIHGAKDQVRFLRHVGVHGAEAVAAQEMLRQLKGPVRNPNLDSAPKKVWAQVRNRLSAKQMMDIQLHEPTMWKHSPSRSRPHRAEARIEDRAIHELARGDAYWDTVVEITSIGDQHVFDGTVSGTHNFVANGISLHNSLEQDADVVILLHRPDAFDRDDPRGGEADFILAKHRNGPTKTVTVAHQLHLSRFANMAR", "test": "DnaB intein splicing inhibitors, dose response, biochemical, cell-free fluorescence (AID 449749)", "assay_type": "functional"}, "Protein RecA": {"target": "T5, Protein RecA (Mycobacterium tuberculosis, UniProt P9WHJ3)", "T5 sequence (P9WHJ3 whole entry)": "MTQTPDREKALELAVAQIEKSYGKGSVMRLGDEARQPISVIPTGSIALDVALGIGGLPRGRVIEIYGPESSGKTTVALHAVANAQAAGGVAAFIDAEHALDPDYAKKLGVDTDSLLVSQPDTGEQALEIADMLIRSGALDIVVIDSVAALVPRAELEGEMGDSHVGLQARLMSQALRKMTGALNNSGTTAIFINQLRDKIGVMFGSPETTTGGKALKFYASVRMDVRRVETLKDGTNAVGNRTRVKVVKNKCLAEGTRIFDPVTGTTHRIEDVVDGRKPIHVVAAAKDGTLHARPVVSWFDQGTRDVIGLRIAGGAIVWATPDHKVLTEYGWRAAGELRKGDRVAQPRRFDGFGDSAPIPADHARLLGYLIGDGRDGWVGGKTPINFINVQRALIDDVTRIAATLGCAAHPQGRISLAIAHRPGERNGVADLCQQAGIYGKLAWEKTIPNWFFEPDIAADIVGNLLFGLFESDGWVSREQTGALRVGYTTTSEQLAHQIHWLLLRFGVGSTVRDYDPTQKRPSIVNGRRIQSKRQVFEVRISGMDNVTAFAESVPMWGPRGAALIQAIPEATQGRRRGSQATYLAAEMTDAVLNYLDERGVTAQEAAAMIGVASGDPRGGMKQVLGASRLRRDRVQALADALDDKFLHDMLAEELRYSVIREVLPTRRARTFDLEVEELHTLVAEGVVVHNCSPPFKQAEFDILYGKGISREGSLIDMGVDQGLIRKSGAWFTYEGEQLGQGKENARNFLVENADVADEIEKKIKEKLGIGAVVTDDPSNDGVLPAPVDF", "test": "Fluorescence Cell-Free Homogeneous Dose Retest to Identify Inhibitors of RecA-Intein Splicing Activity. [Related pubchem assays (depositor defined):AID2097, AID2223, AID489010, AID492950]", "assay_type": "functional"}, "[10]": {"test": "Shn3 3'UTR reporter inhibitors, dose response, cell-based, Clone20 osteoblasts, firefly luciferase, cherry-picked (AID 624132);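 note: firefly luciferase luminescence from reporter carrying the Shn3 3'UTR in osteoblasts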", "assay_type": "functional"}, "[11]": {"test": "HepG2 cell cytotoxicity, dose response, cytotoxicity control for Shn3 inhibitor project, CellTiter-Glo, cherry-picked (AID 624134)", "assay_type": "functional, cell-based"}, "[12]": {"test": "control 3'UTR Renilla luciferase suppression, dose response, counter-screen for Shn3 inhibitor project, cell-based, Clone20-Shn3RL, cherry-picked (AID 624133)", "assay_type": "functional"}, "Caspase-6": {"target": "T6, Caspase-6 (Homo sapiens, UniProt P55212)", "T6 sequence (P55212 whole entry)": "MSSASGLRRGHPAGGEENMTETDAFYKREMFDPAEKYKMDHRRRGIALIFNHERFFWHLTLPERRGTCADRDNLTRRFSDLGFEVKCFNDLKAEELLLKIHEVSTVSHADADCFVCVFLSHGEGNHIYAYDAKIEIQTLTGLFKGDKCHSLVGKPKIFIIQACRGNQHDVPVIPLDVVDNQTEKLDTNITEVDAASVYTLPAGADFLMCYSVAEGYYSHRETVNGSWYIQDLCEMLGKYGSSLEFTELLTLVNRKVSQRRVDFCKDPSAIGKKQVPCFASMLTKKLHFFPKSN", "test": "human caspase-6 inhibitors, dose response, biochemical, VEID-R110 fluorescence, cherry-pick (AID 720632)"}, "[13]": {"test": "HeLa 2N DNA content increase, dose response, cell-based, IC50 (AID 1117349)", "assay_type": "functional"}, "[14]": {"test": "HeLa 4N DNA content increase, dose response, cell-based, IC50 (AID 1117351)", "assay_type": "functional"}}, "note": "Counter-ions that a name gives are not always drawn. Activity calls are given as the source filed them.", "data": [{"smiles": "CN[C@@H](C)C(=O)NC1CCCN(CC(=O)NC2CCc3ccccc3C2)C1=O", "note": "(some centres not stated)", "values": [{"measurement": "IC50", "setting": "[1]", "value": "> 100 µM (inactive)"}, {"measurement": "IC50", "setting": "[2]", "value": "> 100 µM (inactive)"}]}, {"smiles": "Cc1ccc(-n2c(N)c(C(=O)N3CCN(c4ccccc4F)CC3)sc2=S)cc1", "values": [{"measurement": "IC50", "setting": "[3]", "value": "> 100 µM (inactive)"}]}, {"smiles": "c1ccc(CC2CCN(c3ncnc4sc5c(c34)CCC5)CC2)cc1", "values": [{"measurement": "IC50", "setting": "[4]", "value": "20 µM (inactive)"}, {"measurement": "IC50", "setting": "[5]", "value": "> 55.7 µM (inactive)"}]}, {"smiles": "CC(C)(C)CCN1CCC[C@H](NC(=O)c2ccc(Cl)cc2Cl)C1", "values": [{"measurement": "EC50", "setting": "[6]", "value": "10 µM (active)"}]}, {"smiles": "Cc1ccc(Oc2ncc(Cl)cc2Cl)c([N+](=O)[O-])n1", "values": [{"measurement": "EC50", "setting": "[7]", "value": "> 50 µM (inactive)"}]}, {"smiles": "COc1ccc(/C=N/NC(=O)c2cccnc2)cc1CN1CCOCC1", "values": [{"measurement": "EC50", "setting": "Troponin, cardiac muscle", "value": "> 71.5 µM (inactive)"}]}, {"smiles": "COc1ccc(Cc2nccc3cc(OC)c(OC)cc23)cc1OC", "note": "[PAPAVERINE HYDROCHLORIDE]", "values": [{"measurement": "IC50", "setting": "[8]", "value": "39 µM (inactive)"}, {"measurement": "AC50", "setting": "[9]", "value": "5.66 µM (active)"}, {"measurement": "EC50", "setting": "Protein RecA", "value": "3.01 µM (active)"}, {"measurement": "AC50", "setting": "[10]", "value": "2.48 µM (active)"}, {"measurement": "AC50", "setting": "[11]", "value": "8.06 µM (active)"}, {"measurement": "AC50", "setting": "[12]", "value": "20.8 µM (active)"}, {"measurement": "AC50", "setting": "Caspase-6", "value": "22 µM (active)"}, {"measurement": "IC50", "setting": "[13]", "value": "> 10 µM (inactive)"}, {"measurement": "IC50", "setting": "[14]", "value": "> 10 µM (inactive)"}]}]}
